Reference: US20240245694A1, “Tricyclic Compounds and their Uses” (Novartis AG, priority 2022, published 2024)

Legend:
[1] = target: WRN helicase (core helicase motif aa N517-P1238) (Homo sapiens (Human), UniProt Q14191); assay: WRN ATPase assay (ADP-Glo), DNA dependent ATP hydrolysis; format: biochemical; details: 3 hours pre-incubation, 300 micromolar ATP, FLAP26 ssDNA; geometric means of at least 2 determinations
How it was run: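 Uses the WRN core helicase (aa N517-P1238) with single-strand 45-mer FLAP26 DNA in Tris pH 7.5, MgCl2, NaCl, BSA and pluronic buffer. Compound was pre-incubated 3 h with enzyme and ATP; reaction then run with 10 nM WRN, 0.2 nM FLAP26 and 300 µM ATP for 30 min at room temperature. ADP quantified by ADP-Glo luminescence; IC50 from duplicate 4-parameter fits, geometric mean of ≥2 runs.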

DLD1-WRN-KO cells = assay: Proliferation assay DLD1-WRN-KO (CellTiterGlo, 96 hours), off-target effects; format: cell-based; details: Homo sapiens
How it was run: (§1)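 Cells in RPMI-1640/10% FCS were seeded overnight (SW48 2'000, DLD1-WRN-KO 1'500 cells/well), then exposed to eight 3-fold compound dilutions at 0.1% DMSO. ATP luminescence relative to a day-0 plate gives % growth (0% stasis, −100% complete kill). GI50 is the geometric mean of ≥2 independent replicates.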

SW48 cells = assay: Proliferation assay SW48 (CellTiterGlo, 96 hours); format: cell-based; details: Homo sapiens
How it was run: as §1

Chain of WRN helicase (core helicase motif aa N517-P1238) (Q14191 517-1238): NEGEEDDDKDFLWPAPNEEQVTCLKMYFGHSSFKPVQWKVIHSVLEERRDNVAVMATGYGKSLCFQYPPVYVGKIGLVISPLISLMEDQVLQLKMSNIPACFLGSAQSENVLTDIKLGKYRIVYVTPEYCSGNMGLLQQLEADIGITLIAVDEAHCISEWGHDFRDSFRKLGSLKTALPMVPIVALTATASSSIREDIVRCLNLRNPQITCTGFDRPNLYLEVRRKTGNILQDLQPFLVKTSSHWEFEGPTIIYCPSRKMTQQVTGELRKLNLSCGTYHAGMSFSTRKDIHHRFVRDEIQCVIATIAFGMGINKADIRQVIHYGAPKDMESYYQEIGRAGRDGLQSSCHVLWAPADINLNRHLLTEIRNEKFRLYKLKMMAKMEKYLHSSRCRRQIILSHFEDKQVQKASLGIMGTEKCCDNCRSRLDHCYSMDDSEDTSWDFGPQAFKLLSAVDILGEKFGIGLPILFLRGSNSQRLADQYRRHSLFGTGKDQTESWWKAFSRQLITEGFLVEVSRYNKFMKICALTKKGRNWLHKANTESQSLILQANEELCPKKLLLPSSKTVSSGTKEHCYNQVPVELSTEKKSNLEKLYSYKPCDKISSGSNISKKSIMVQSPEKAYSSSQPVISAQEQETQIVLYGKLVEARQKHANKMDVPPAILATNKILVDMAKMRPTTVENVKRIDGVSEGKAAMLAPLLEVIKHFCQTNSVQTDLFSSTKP

Row | Compound | IC50 [1] | GI50 (DLD1-WRN-KO cells) | GI50 (SW48 cells)
1 | C[C@@H]1C[C@H](C(=O)Nc2ccc(C(F)(F)F)cc2Cl)n2c1c(N1CCN(C(=O)c3c(O)ccc4nccn34)CC1)c(=O)n1nc(C3=CCOCC3)nc21 [Example 9, (7R,9R)—N-(2-chloro-4-(trifluoromethyl)phenyl)-2-(3,6-dihydro-2H-pyran-4-yl)-6-(4-(6-hydroxyimidazo[1,2-a]pyridine-5-carbonyl)piperazin-1-yl)-7-methyl-5-oxo-5,7,8,9-tetrahydropyrrolo[1,2-c][1,2,4]triazolo[1,5-a]pyrimidine-9-carboxamide] | 0.05 µM | > 10 µM | 0.06 µM
2 | Cc1nccc(C(=O)N2CCN(c3c4n(c5nc(C6=CCOCC6)nn5c3=O)[C@@H](C(=O)Nc3ccc(C(F)(F)F)cc3Cl)C[C@H]4C)CC2)c1O [Example 10, (7R,9R)—N-(2-chloro-4-(trifluoromethyl)phenyl)-2-(3,6-dihydro-2H-pyran-4-yl)-6-(4-(3-hydroxy-2-methylisonicotinoyl)piperazin-1-yl)-7-methyl-5-oxo-5,7,8,9-tetrahydropyrrolo[1,2-c][1,2,4]triazolo[1,5-a]pyrimidine-9-carboxamide] | 0.09 µM | > 10 µM | 0.2 µM
3 | C[C@@H]1C[C@H](C(=O)Nc2ccc(C(F)(F)F)cc2Cl)n2c1c(N1CCN(C(=O)c3ncccc3O)CC1)c(=O)n1nc(C3=CCOCC3)nc21 [Example 11, (7R,9R)—N-(2-chloro-4-(trifluoromethyl)phenyl)-2-(3,6-dihydro-2H-pyran-4-yl)-6-(4-(3-hydroxypicolinoyl)piperazin-1-yl)-7-methyl-5-oxo-5,7,8,9-tetrahydropyrrolo[1,2-c][1,2,4]triazolo[1,5-a]pyrimidine-9-carboxamide] | 0.05 µM | > 10 µM | 0.04 µM
4 | C[C@@H]1C[C@H](C(=O)Nc2ccc(C(F)(F)F)cc2Cl)n2c1c(N1CCN(C(=O)c3ccnc(F)c3O)CC1)c(=O)n1nc(C3=CCOCC3)nc21 [Example 12, (7R,9R)—N-(2-chloro-4-(trifluoromethyl)phenyl)-2-(3,6-dihydro-2H-pyran-4-yl)-6-(4-(2-fluoro-3-hydroxyisonicotinoyl)piperazin-1-yl)-7-methyl-5-oxo-5,7,8,9-tetrahydropyrrolo[1,2-c][1,2,4]triazolo[1,5-a]pyrimidine-9-carboxamide] | 0.03 µM | > 10 µM | 0.3 µM
5 | C[C@@H]1C[C@H](C(=O)Nc2ccc(C(F)(F)F)cc2Cl)n2c1c(N1CCN(C(=O)c3ncncc3O)CC1)c(=O)n1nc(C3=CCOCC3)nc21 [Example 13, (7R,9R)—N-(2-chloro-4-(trifluoromethyl)phenyl)-2-(3,6-dihydro-2H-pyran-4-yl)-6-(4-(5-hydroxypyrimidine-4-carbonyl)piperazin-1-yl)-7-methyl-5-oxo-5,7,8,9-tetrahydropyrrolo[1,2-c][1,2,4]triazolo[1,5-a]pyrimidine-9-carboxamide] | 0.05 µM | > 10 µM | 0.04 µM
6 | Cc1ncnc(C(=O)N2CCN(c3c4n(c5nc(C6=CCOCC6)nn5c3=O)[C@@H](C(=O)Nc3ccc(C(F)(F)F)cc3Cl)C[C@H]4C)CC2)c1O [Example 14A, (7R,9R)—N-(2-chloro-4-(trifluoromethyl)phenyl)-2-(3,6-dihydro-2H-pyran-4-yl)-6-(4-(5-hydroxy-6-methylpyrimidine-4-carbonyl)piperazin-1-yl)-7-methyl-5-oxo-5,7,8,9-tetrahydropyrrolo[1,2-c][1,2,4]triazolo[1,5-a]pyrimidine-9-carboxamide] | 0.04 µM | > 10 µM | 0.02 µM
7 | Cc1ncnc(C(=O)N2CCN(c3c4n(c5nc(C6=CCOCC6)nn5c3=O)[C@H](C(=O)Nc3ccc(C(F)(F)F)cc3Cl)C[C@@H]4C)CC2)c1O [Example 14B, (7S,9S)—N-(2-chloro-4-(trifluoromethyl)phenyl)-2-(3,6-dihydro-2H-pyran-4-yl)-6-(4-(5-hydroxy-6-methylpyrimidine-4-carbonyl)piperazin-1-yl)-7-methyl-5-oxo-5,7,8,9-tetrahydropyrrolo[1,2-c][1,2,4]triazolo[1,5-a]pyrimidine-9-carboxamide] | 2 µM | > 10 µM | 0.7 µM
8 | Cc1ncnc(C(=O)N2CCN(c3c4n(c5nc(C6=CCOCC6)nn5c3=O)[C@@H](C(=O)Nc3ccc(C(F)(F)F)cc3Cl)C[C@@H]4C)CC2)c1O [Example 14C, (7S,9R)—N-(2-chloro-4-(trifluoromethyl)phenyl)-2-(3,6-dihydro-2H-pyran-4-yl)-6-(4-(5-hydroxy-6-methylpyrimidine-4-carbonyl)piperazin-1-yl)-7-methyl-5-oxo-5,7,8,9-tetrahydropyrrolo[1,2-c][1,2,4]triazolo[1,5-a]pyrimidine-9-carboxamide] | 0.1 µM | > 10 µM | 0.3 µM
9 | Cc1ncnc(C(=O)N2CCN(c3c4n(c5nc(C6=CCOCC6)nn5c3=O)[C@H](C(=O)Nc3ccc(C(F)(F)F)cc3Cl)C[C@H]4C)CC2)c1O [Example 14D, (7R,9S)—N-(2-chloro-4-(trifluoromethyl)phenyl)-2-(3,6-dihydro-2H-pyran-4-yl)-6-(4-(5-hydroxy-6-methylpyrimidine-4-carbonyl)piperazin-1-yl)-7-methyl-5-oxo-5,7,8,9-tetrahydropyrrolo[1,2-c][1,2,4]triazolo[1,5-a]pyrimidine-9-carboxamide] | 1 µM | > 10 µM | 0.7 µM
10 | Cc1cc(C(F)(F)F)ccc1NC(=O)[C@H]1C[C@@H](C)c2c(N3CCN(C(=O)c4ncccc4O)CC3)c(=O)n3nc(C4=CCOCC4)nc3n21 [Example 15A, (7R,9R)-2-(3,6-dihydro-2H-pyran-4-yl)-6-(4-(3-hydroxypicolinoyl)piperazin-1-yl)-7-methyl-N-(2-methyl-4-(trifluoromethyl)phenyl)-5-oxo-5,7,8,9-tetrahydropyrrolo[1,2-c][1,2,4]triazolo[1,5-a]pyrimidine-9-carboxamide] | 0.05 µM | > 10 µM | 0.03 µM
11 | Cc1cc(C(F)(F)F)ccc1NC(=O)[C@@H]1C[C@H](C)c2c(N3CCN(C(=O)c4ncccc4O)CC3)c(=O)n3nc(C4=CCOCC4)nc3n21 [Example 15B, (7S,9S)-2-(3,6-dihydro-2H-pyran-4-yl)-6-(4-(3-hydroxypicolinoyl)piperazin-1-yl)-7-methyl-N-(2-methyl-4-(trifluoromethyl)phenyl)-5-oxo-5,7,8,9-tetrahydropyrrolo[1,2-c][1,2,4]triazolo[1,5-a]pyrimidine-9-carboxamide] | 18 µM | > 10 µM | 8 µM
12 | Cc1cc(C(F)(F)F)ccc1NC(=O)[C@H]1C[C@H](C)c2c(N3CCN(C(=O)c4ncccc4O)CC3)c(=O)n3nc(C4=CCOCC4)nc3n21 [Example 15C, (7S,9R)-2-(3,6-dihydro-2H-pyran-4-yl)-6-(4-(3-hydroxypicolinoyl)piperazin-1-yl)-7-methyl-N-(2-methyl-4-(trifluoromethyl)phenyl)-5-oxo-5,7,8,9-tetrahydropyrrolo[1,2-c][1,2,4]triazolo[1,5-a]pyrimidine-9-carboxamide] | 0.1 µM | > 10 µM | 0.4 µM
13 | Cc1cc(C(F)(F)F)ccc1NC(=O)[C@@H]1C[C@@H](C)c2c(N3CCN(C(=O)c4ncccc4O)CC3)c(=O)n3nc(C4=CCOCC4)nc3n21 [Example 15D, (7R,9S)-2-(3,6-dihydro-2H-pyran-4-yl)-6-(4-(3-hydroxypicolinoyl)piperazin-1-yl)-7-methyl-N-(2-methyl-4-(trifluoromethyl)phenyl)-5-oxo-5,7,8,9-tetrahydropyrrolo[1,2-c][1,2,4]triazolo[1,5-a]pyrimidine-9-carboxamide] | 61 µM | > 10 µM | > 10 µM
14 | Cc1cc(C(F)(F)F)ccc1NC(=O)[C@H]1C[C@@H](C)c2c(N3CCN(C(=O)c4nccc(F)c4O)CC3)c(=O)n3nc(C4=CCOCC4)nc3n21 [Example 16, (7R,9R)-2-(3,6-dihydro-2H-pyran-4-yl)-6-(4-(4-fluoro-3-hydroxypicolinoyl)piperazin-1-yl)-7-methyl-N-(2-methyl-4-(trifluoromethyl)phenyl)-5-oxo-5,7,8,9-tetrahydropyrrolo[1,2-c][1,2,4]triazolo[1,5-a]pyrimidine-9-carboxamide] | 0.04 µM | > 10 µM | 0.01 µM
15 | Cc1cc(C(F)(F)F)ccc1NC(=O)[C@H]1C[C@@H](C)c2c(N3CCN(C(=O)c4ncnc(C)c4O)CC3)c(=O)n3nc(C4=CCOCC4)nc3n21 [Example 17, (7R,9R)-2-(3,6-dihydro-2H-pyran-4-yl)-6-(4-(5-hydroxy-6-methylpyrimidine-4-carbonyl)piperazin-1-yl)-7-methyl-N-(2-methyl-4-(trifluoromethyl)phenyl)-5-oxo-5,7,8,9-tetrahydropyrrolo[1,2-c][1,2,4]triazolo[1,5-a]pyrimidine-9-carboxamide] | 0.06 µM | > 10 µM | 0.02 µM
16 | Cc1ncnc(C(=O)N2CCN(c3c4n(c5nc(C6=CCOCC6)nn5c3=O)[C@H](C(=O)Nc3ccc(C(F)(F)F)cc3Cl)C[C@@H]4C)C[C@H]2C)c1O [Example 18B, (7S,9S)—N-(2-chloro-4-(trifluoromethyl)phenyl)-2-(3,6-dihydro-2H-pyran-4-yl)-6-((R)-4-(5-hydroxy-6-methylpyrimidine-4-carbonyl)-3-methylpiperazin-1-yl)-7-methyl-5-oxo-5,7,8,9-tetrahydropyrrolo[1,2-c][1,2,4]triazolo[1,5-a]pyrimidine-9-carboxamide] | 36 µM | > 10 µM | > 10 µM
